Results published in ChEMBL document CHEMBL1201862, “PubChem BioAssay data set” (2004).
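These data come from cells grown in 96-well plates and exposed to compound for 48 hours at five concentrations. Abbreviation: GI50, concentration required for 50% inhibition of growth.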 Active and inactive are the calls of the source. No stated cut-off is given here; in the data, active = GI50 up to about 1.1 µM and inactive = higher.

Legend:
Test in all cases: DTP human tumour cell line panel, 48 h
NCI-H460 = tested on: NCI-H460
CCRF-CEM = tested on: CCRF-CEM
UACC-62 = tested on: UACC-62
SK-OV-3 = tested on: SK-OV-3
UO-31 = tested on: UO-31
EKVX = tested on: EKVX
HL-60 = tested on: HL-60
NCI-H522 = tested on: NCI-H522
SNB-75 = tested on: SNB-75
HOP-92 = tested on: HOP-92
SN12C = tested on: SN12C
NCI-H23 = tested on: NCI-H23
HCC 2998 = tested on: HCC 2998
HCT-116 = tested on: HCT-116
U-251 = tested on: U-251
NCI-H226 = tested on: NCI-H226
KM12 = tested on: KM12
A498 = tested on: A498
SW-620 = tested on: SW-620
RPMI-8226 = tested on: RPMI-8226

Compound | GI50 (NCI-H460) | GI50 (CCRF-CEM) | GI50 (UACC-62) | GI50 (SK-OV-3) | GI50 (UO-31) | GI50 (EKVX) | GI50 (HL-60) | GI50 (NCI-H522) | GI50 (SNB-75) | GI50 (HOP-92) | GI50 (SN12C) | GI50 (NCI-H23) | GI50 (HCC 2998) | GI50 (HCT-116) | GI50 (U-251) | GI50 (NCI-H226) | GI50 (KM12) | GI50 (A498) | GI50 (SW-620) | GI50 (RPMI-8226)
CCCCCCCCCCCC(=O)C1=C(O)CCC(O)C1=O (centres undefined) | 15.7 µM (inactive) | 8.18 µM (inactive) | 10.8 µM (inactive) | 26.8 µM (inactive) | 19.7 µM (inactive) | 5.86 µM (inactive) | 13.5 µM (inactive) | 12.1 µM (inactive) | 21.6 µM (inactive) | 17.7 µM (inactive) | 21.8 µM (inactive) | 3.48 µM (inactive) | 22 µM (inactive) | 21.3 µM (inactive) | 14.6 µM (inactive) | 18 µM (inactive) | 17.9 µM (inactive) | 16.2 µM (inactive) | 13.2 µM (inactive) | 
O=C(CCC(=O)OCC1OC(O)(CC2OC(CO)C(O)C(O)C2O)C(O)C1O)OCc1ccccc1 (centres undefined) | > 100 µM (inactive) | 67.1 µM (inactive) | > 100 µM (inactive) | > 100 µM (inactive) | > 100 µM (inactive) | > 100 µM (inactive) | > 100 µM (inactive) | > 100 µM (inactive) | > 100 µM (inactive) | > 100 µM (inactive) | > 100 µM (inactive) | > 100 µM (inactive) | > 100 µM (inactive) | > 100 µM (inactive) | > 100 µM (inactive) | > 100 µM (inactive) | > 100 µM (inactive) | > 100 µM (inactive) | > 100 µM (inactive) | 
COC(=O)[C@]1(C)CCCn2c(=O)n(-c3ccccc3)c(=O)n21 |  | > 100 µM (inactive) | > 100 µM (inactive) | > 100 µM (inactive) | > 100 µM (inactive) | > 100 µM (inactive) |  | > 100 µM (inactive) | > 100 µM (inactive) | > 100 µM (inactive) | > 100 µM (inactive) | > 100 µM (inactive) | > 100 µM (inactive) | > 100 µM (inactive) | > 100 µM (inactive) | 68.1 µM (inactive) | > 100 µM (inactive) | > 100 µM (inactive) | > 100 µM (inactive) | > 100 µM (inactive)
CCCCCCCCCCCCCCCCP(=O)([O-])OCC[N+](C)(C)C | 5.75 µM (inactive) | 8.47 µM (inactive) | 13.9 µM (inactive) | 7.4 µM (inactive) | 14.9 µM (inactive) | 20.1 µM (inactive) |  | 22.6 µM (inactive) | 14.8 µM (inactive) | 15 µM (inactive) | 12.9 µM (inactive) | 20.2 µM (inactive) | 6.19 µM (inactive) | 14.8 µM (inactive) | 16.7 µM (inactive) | 23 µM (inactive) | 2.61 µM (inactive) | 14.5 µM (inactive) | 14.5 µM (inactive) | 15.3 µM (inactive)
COC(=O)c1cc2c3c(cc(N(C)C)c2[nH]1)N(C(=O)c1cc2cc(OC)c(OC)c(OC)c2[nH]1)CC3CCl (centres undefined) | 0.00252 µM (active) | 0.00403 µM (active) | 0.00558 µM (active) | 0.00738 µM (active) | 0.00316 µM (active) | 0.0146 µM (active) |  | 0.00279 µM (active) | 0.0042 µM (active) | 0.0041 µM (active) | 0.0114 µM (active) | 0.00381 µM (active) | 0.00948 µM (active) | < 0.0025 µM (active) | < 0.0025 µM (active) | 0.00362 µM (active) | 0.00267 µM (active) | 0.00443 µM (active) | < 0.0025 µM (active) | 0.00432 µM (active)
COC(=O)C#CCC1CCCC1C1SCCS1 (centres undefined) |  | 29.2 µM (inactive) | 35.8 µM (inactive) | > 100 µM (inactive) | > 100 µM (inactive) | > 100 µM (inactive) | 38.1 µM (inactive) | 28 µM (inactive) | > 100 µM (inactive) | > 100 µM (inactive) | 37.5 µM (inactive) | > 100 µM (inactive) | > 100 µM (inactive) | > 100 µM (inactive) | 59.6 µM (inactive) | > 100 µM (inactive) | 36.7 µM (inactive) | > 100 µM (inactive) | > 100 µM (inactive) | 
CCN(CC)CCNC(=O)c1cc2cc(NC(=O)c3cc4cc(NC(=O)c5cc6cc(N)ccc6[nH]5)ccc4[nH]3)ccc2[nH]1 | > 100 µM (inactive) | > 100 µM (inactive) | > 100 µM (inactive) | > 100 µM (inactive) | > 100 µM (inactive) | > 100 µM (inactive) |  | > 100 µM (inactive) | > 100 µM (inactive) | > 100 µM (inactive) | > 100 µM (inactive) | > 100 µM (inactive) | > 100 µM (inactive) |  | > 100 µM (inactive) | > 100 µM (inactive) | > 100 µM (inactive) | > 100 µM (inactive) | > 100 µM (inactive) | > 100 µM (inactive)
COC(CC1(/C=C/O[Si](C(C)C)(C(C)C)C(C)C)C(=O)N(COCC[Si](C)(C)C)c2ccccc21)OC (centres undefined) | 23.1 µM (inactive) | 13.4 µM (inactive) | 18.8 µM (inactive) | 20.8 µM (inactive) | 76 µM (inactive) |  |  | 6.75 µM (inactive) | 81.8 µM (inactive) | 9.48 µM (inactive) | 45.1 µM (inactive) | 25.1 µM (inactive) | 27.9 µM (inactive) | 16.1 µM (inactive) | 31.8 µM (inactive) | > 100 µM (inactive) | 36.1 µM (inactive) | > 100 µM (inactive) | 37.2 µM (inactive) | > 100 µM (inactive)
c1ccc(N/N=C2\NN=C(c3ccccc3)CS2)cc1 | 14 µM (inactive) | 3.17 µM (inactive) | 5.81 µM (inactive) | 14.9 µM (inactive) | 12.9 µM (inactive) | 12.4 µM (inactive) | 3.58 µM (inactive) | 3.49 µM (inactive) |  | 11.3 µM (inactive) | > 10 µM (inactive) | 17.9 µM (inactive) | 4.74 µM (inactive) | 3.8 µM (inactive) | > 10 µM (inactive) | 16 µM (inactive) | 13.2 µM (inactive) | 10.8 µM (inactive) | 12.1 µM (inactive) | 
CC1CCC2C(C(=O)O[C@H]3C4CCO[C@@H](OC5OC(CO)C(O)C(O)C5O)C4[C@@]4(CO)O[C@@H]34)=CO[C@@H](OC3OC(CO)C(O)C(O)C3O)C12 (some centres undefined) | > 10 µM (inactive) | > 10 µM (inactive) | > 10 µM (inactive) | > 10 µM (inactive) | > 10 µM (inactive) | > 10 µM (inactive) | > 10 µM (inactive) |  | > 10 µM (inactive) | > 10 µM (inactive) | > 10 µM (inactive) | > 10 µM (inactive) | > 10 µM (inactive) | > 10 µM (inactive) | > 10 µM (inactive) | > 10 µM (inactive) | > 10 µM (inactive) | > 10 µM (inactive) | > 10 µM (inactive) | > 10 µM (inactive)
COC(=O)C1=C(O)c2cc3c(cc2[C@H](c2cc(OC)c(OC)c(OC)c2)C1C(=O)OC)OCO3 (some centres undefined) | 61 µM (inactive) | > 100 µM (inactive) | 30.1 µM (inactive) | 44.1 µM (inactive) | 42.3 µM (inactive) | 68.2 µM (inactive) | > 100 µM (inactive) |  | 22.8 µM (inactive) | 33.7 µM (inactive) | 25.5 µM (inactive) | > 100 µM (inactive) | > 100 µM (inactive) | 34.7 µM (inactive) | 82.8 µM (inactive) | 33 µM (inactive) | 35.2 µM (inactive) | 76 µM (inactive) | 80.2 µM (inactive) | > 100 µM (inactive)
